{"source": "ChEMBL document CHEMBL1201862", "about": "“PubChem BioAssay data set” (2004)", "key": {"[1]": {"assay": "rise of 2N DNA cells, HeLa – IC50, dose response (AID 1117349)", "type": "functional, cell-based"}, "[2]": {"assay": "cytotoxicity toward HCT116 cells – cell-based, CellTiter-Glo luminescence, IC50, dose response (AID 1117332)", "type": "functional", "details": "HCT-116"}, "[3]": {"assay": "SNU-C1 cell viability reduction, dose response, CellTiter-Glo luminescence (AID 1117323)", "type": "functional, cell-based"}, "[4]": {"assay": "rise of 4N DNA cells, HeLa – IC50, dose response (AID 1117351)", "type": "functional, cell-based"}, "[5]": {"assay": "cytotoxicity toward HT-29 cells – cell-based, CellTiter-Glo luminescence, IC50, dose response (AID 1117330)", "type": "functional"}, "[6]": {"assay": "Reduced DLD-1 viability, concentration-response, CellTiter-Glo luminescence (AID 1117352)", "type": "functional"}, "[7]": {"assay": "HCT116 cell viability decrease, GSK3B pretreatment – CellTiter-Glo, IC50, dose response (AID 1117339)", "type": "functional", "details": "HCT-116"}, "[8]": {"molecular_target": "T1, RNA-binding protein pos-1 (Caenorhabditis elegans, UniProt G5EF15)", "T1 sequence (G5EF15 whole entry)": "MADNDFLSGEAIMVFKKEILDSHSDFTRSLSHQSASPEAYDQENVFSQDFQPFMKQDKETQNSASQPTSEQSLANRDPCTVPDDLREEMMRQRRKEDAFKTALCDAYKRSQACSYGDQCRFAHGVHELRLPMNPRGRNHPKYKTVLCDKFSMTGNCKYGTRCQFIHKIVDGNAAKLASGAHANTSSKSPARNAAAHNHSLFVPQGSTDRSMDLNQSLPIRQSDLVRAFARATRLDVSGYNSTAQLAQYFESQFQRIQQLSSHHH", "assay": "disruptors of C. elegans POS-1 RNA interaction – biochemical, fluorescence polarization, dose response (AID 1964);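 note: purified POS-1 fused to maltose binding protein made in E. coli; potency of compounds blocking POS-1 binding to fluorescent RNA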"}, "[9]": {"molecular_target": "T2, Mannose-6-phosphate isomerase (Homo sapiens, UniProt P34949)", "T2 sequence (P34949 whole entry)": "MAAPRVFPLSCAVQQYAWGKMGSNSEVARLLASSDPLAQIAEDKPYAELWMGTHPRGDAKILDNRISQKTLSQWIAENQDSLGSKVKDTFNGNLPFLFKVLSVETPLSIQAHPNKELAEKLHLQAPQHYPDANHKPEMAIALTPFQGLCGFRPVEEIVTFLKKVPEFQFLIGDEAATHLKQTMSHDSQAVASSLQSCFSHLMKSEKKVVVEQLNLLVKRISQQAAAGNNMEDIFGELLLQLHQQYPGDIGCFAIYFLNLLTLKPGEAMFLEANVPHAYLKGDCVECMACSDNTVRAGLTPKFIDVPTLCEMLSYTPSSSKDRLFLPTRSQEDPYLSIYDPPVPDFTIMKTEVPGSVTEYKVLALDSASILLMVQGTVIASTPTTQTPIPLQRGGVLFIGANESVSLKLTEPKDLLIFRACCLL", "assay": "MPI enzyme activity inhibition – biochemical, fluorescence intensity, coupled assay, primary screen (AID 1209)"}, "[10]": {"molecular_target": "Induced myeloid leukemia cell differentiation protein Mcl-1 (Homo sapiens, UniProt Q07820)", "sequence (Q07820 whole entry)": "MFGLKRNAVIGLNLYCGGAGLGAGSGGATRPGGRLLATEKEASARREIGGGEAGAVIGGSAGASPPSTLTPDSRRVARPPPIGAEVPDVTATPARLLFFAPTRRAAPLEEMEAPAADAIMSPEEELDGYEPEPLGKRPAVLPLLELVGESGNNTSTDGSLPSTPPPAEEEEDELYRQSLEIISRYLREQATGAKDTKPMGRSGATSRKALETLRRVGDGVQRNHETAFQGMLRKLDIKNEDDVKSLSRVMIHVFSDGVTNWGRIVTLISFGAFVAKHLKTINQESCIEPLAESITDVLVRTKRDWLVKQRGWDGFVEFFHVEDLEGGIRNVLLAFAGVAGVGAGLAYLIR", "type": "functional"}, "[11]": {"molecular_target": "T2, Mannose-6-phosphate isomerase", "assay": "MPI inhibition at elevated mannose 6-phosphate – biochemical, fluorescence intensity, high mannose 6-phosphate, primary screen (AID 1220)"}, "[12]": {"molecular_target": "Glucose-6-phosphate 1-dehydrogenase (Homo sapiens, UniProt P11413)", "sequence (P11413 whole entry)": "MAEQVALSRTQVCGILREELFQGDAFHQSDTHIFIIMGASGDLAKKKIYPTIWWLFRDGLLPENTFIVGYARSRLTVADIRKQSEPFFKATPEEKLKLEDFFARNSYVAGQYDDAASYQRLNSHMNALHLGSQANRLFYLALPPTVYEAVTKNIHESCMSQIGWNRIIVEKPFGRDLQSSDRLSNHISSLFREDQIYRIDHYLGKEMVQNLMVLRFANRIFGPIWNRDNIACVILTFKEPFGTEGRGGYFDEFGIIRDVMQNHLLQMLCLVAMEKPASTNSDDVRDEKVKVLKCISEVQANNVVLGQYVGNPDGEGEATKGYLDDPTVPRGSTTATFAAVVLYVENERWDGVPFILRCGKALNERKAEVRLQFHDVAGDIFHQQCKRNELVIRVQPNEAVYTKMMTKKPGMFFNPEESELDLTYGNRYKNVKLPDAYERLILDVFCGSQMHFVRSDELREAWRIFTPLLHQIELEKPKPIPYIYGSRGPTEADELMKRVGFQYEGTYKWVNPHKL", "assay": "inhibition of Homo sapiens G6PD, dose series – biochemical, fluorescence, selectivity assay for P. falciparum G6PD inhibitor project, dose response (AID 504792)", "type": "functional"}, "Genome polyprotein": {"molecular_target": "Genome polyprotein (dengue virus type 2, UniProt P29990)", "sequence (P29990 2492-3391 limits assumed)": "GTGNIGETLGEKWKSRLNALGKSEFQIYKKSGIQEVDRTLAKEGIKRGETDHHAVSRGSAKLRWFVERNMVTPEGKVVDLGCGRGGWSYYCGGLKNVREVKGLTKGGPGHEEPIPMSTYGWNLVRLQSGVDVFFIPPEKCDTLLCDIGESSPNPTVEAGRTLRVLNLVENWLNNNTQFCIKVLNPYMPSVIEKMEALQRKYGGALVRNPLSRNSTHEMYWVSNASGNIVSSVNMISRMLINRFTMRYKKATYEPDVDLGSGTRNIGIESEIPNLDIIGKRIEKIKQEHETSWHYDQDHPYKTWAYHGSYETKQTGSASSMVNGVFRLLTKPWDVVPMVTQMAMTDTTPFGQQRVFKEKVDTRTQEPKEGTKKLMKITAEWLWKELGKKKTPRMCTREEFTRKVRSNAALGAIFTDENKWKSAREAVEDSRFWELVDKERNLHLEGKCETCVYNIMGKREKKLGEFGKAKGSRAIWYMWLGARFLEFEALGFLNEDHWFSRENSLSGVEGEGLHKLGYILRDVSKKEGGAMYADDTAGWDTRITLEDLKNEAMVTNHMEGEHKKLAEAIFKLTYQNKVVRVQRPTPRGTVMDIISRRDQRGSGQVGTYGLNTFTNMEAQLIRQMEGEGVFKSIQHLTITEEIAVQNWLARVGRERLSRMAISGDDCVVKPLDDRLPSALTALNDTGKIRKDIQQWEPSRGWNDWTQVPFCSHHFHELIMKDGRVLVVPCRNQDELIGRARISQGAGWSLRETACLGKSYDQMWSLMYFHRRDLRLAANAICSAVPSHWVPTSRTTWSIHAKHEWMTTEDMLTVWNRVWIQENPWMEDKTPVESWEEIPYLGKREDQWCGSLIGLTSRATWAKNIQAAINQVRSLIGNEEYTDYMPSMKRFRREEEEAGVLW", "assay": "flavivirus cap methylation enzyme inhibition – biochemical, confirmation dose response, primary screen (AID 588689)", "type": "functional"}, "Albumin": {"molecular_target": "Albumin (Bos taurus, UniProt P02769)", "sequence (P02769 whole entry)": "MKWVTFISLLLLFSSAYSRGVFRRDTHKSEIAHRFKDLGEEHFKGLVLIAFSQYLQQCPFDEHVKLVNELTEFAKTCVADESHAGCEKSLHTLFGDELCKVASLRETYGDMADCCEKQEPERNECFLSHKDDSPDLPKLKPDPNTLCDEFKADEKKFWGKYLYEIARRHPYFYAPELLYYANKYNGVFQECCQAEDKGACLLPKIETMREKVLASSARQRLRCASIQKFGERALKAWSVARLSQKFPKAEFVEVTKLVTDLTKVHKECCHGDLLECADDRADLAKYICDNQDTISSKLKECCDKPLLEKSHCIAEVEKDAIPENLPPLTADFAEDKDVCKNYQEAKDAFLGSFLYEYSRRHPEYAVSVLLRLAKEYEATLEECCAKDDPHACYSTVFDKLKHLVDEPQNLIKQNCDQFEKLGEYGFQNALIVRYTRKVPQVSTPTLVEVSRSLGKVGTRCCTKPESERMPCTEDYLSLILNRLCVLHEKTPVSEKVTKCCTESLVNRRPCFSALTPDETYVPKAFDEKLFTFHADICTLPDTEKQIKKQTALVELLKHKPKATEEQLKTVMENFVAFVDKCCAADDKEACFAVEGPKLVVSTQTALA", "assay": "Counterscreen for inhibitors of T-cell receptor (TCR)-CD3 interaction: Fluorescence-based biochemical high throughput dose response assay to identify inhibitors of T-cell receptor (TCR)-CD3 interaction using a TAMRA-labeled BSA probe.", "type": "functional"}, "Protein Tat": {"molecular_target": "T3, Protein Tat (Human immunodeficiency virus type 1 group M subtype B (isolate HXB2)(HIV-1), UniProt P04608)", "T3 sequence (P04608 whole entry)": "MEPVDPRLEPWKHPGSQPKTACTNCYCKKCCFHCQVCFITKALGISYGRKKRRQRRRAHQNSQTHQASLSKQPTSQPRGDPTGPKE", "type": "functional"}, "[13]": {"molecular_target": "Glutathione-S-transferase (Schistosoma japonicum, UniProt Q26513)", "sequence (Q26513 whole entry)": "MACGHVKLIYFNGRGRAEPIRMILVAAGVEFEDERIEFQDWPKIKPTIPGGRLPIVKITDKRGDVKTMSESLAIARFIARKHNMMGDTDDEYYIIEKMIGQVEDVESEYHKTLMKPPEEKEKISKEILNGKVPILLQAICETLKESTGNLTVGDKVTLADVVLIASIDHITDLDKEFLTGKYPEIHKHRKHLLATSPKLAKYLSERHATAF", "assay": "GST-antibody interaction or FRET quenching – biochemical, TR-FRET, artefact control for Vif-APOBEC3G degradation inhibitor project, dose response (AID 1117362)", "type": "functional"}, "[14]": {"molecular_target": "RNA-editing ligase 1, mitochondrial (Trypanosoma brucei brucei, UniProt P86926)", "sequence (P86926 whole entry)": "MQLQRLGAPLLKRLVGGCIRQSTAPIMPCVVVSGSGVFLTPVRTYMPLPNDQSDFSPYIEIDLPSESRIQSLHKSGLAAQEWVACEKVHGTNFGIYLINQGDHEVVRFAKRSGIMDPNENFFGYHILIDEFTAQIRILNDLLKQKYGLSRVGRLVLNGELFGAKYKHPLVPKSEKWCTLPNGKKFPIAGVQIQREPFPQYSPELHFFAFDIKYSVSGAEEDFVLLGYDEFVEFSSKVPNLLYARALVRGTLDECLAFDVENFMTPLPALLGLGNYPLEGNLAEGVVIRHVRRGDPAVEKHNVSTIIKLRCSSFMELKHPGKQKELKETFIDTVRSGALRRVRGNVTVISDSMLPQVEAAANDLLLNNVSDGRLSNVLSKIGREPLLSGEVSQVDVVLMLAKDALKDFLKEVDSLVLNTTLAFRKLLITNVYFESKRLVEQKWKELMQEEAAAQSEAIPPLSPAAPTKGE", "assay": "inhibition of trypanosome RNA editing ligase – biochemical, fluorescence, Trypanosoma brucei, dose response (AID 1117295)", "type": "functional"}, "[15]": {"assay": "growth inhibition of yeast DHODH-expressing 3D7 parasites – SYBR Green, dry powder samples, dose response (AID 1159570);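 note: parasite growth measured after 72 hours of compound exposure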", "type": "functional, cell-based"}, "[16]": {"assay": "toxicity to human HepG2 hepatoma cells – cell-based, plate reader, dry powder samples, cytotoxicity control, dose response (AID 1159569);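 note: inhibitor potency with signal falling toward the positive control level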", "type": "functional"}, "[17]": {"assay": "P. falciparum Dd2 growth inhibitors, dose response, SYBR Green, cherry-picked samples (AID 1159567)", "type": "functional, cell-based"}, "[18]": {"assay": "Dd2 malaria parasite growth inhibition potency – SYBR Green, dry powder samples, dose response (AID 1159566);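 note: potency for growth inhibition with lower SYBR green DNA signal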", "type": "functional, cell-based"}, "[19]": {"assay": "toxicity to human hepatoma HepG2 cells – cell-based, cherry-picked samples, cytotoxicity control, dose response (AID 1159577)", "type": "functional"}, "[20]": {"assay": "Plasmodium falciparum Dd2 Sybr green parasite growth Measured in Cell-Based and Microorganism Combination System Using Plate Reader - 2153-01_Inhibitor_Dose_DryPowder_Activity_Set3.", "type": "functional"}, "[21]": {"assay": "growth inhibition of PfATP4-mutant resistant parasites – NITD609-resistant line, SYBR Green, dry powder, dose response (AID 1159571);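 note: parasites synchronized at ring stage by sorbitol before testing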", "type": "functional, cell-based"}, "[22]": {"assay": "Dd2 parasite growth inhibition in erythrocytes – SYBR Green, dry powder samples, set 9, dose response (AID 1159568)", "type": "functional, cell-based"}, "[23]": {"system": "Streptococcus sp. 'group A'", "assay": "Streptococcus pyogenes SK(-)GAS viability under kanamycin – luminescence, BacTiterGlo, confirmation, counter-screen for streptokinase expression inhibitor project, dose response (AID 1900)", "type": "functional, organism-based"}, "Streptokinase A": {"molecular_target": "T4, Streptokinase A (Streptococcus pyogenes serotype M1, UniProt P10520)", "T4 sequence (P10520 whole entry)": "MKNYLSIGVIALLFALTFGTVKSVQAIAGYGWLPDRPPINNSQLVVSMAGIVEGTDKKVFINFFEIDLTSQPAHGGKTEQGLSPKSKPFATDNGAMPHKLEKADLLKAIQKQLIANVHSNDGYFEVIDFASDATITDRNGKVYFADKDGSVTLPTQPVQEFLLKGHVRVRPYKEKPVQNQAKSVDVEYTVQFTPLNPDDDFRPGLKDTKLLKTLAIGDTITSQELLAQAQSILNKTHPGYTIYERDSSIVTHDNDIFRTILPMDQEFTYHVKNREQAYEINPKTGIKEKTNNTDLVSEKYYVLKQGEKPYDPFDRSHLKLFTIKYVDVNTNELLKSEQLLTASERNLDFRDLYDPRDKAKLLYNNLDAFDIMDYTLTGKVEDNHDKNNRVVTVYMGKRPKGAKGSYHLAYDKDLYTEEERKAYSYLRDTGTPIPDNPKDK", "assay": "viability-normalized secreted streptokinase activity reduction – plasminogen activation absorbance, OD405, dose response (AID 1914);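 note: secreted streptokinase activity via plasminogen activation per viability signal from cell pellet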", "type": "functional, Streptococcus pyogenes M1 GAS"}, "Streptococcus": {"system": "Streptococcus", "assay": "GAS UMAA2166 growth inhibition – luminescence, BacTiterGlo, counter-screen for streptokinase expression inhibitor project, dose response (AID 1915)", "type": "functional, organism-based"}, "[24]": {"molecular_target": "T5, Probable nicotinate-nucleotide adenylyltransferase (Staphylococcus aureus (strain N315), UniProt P65502)", "T5 sequence (P65502 whole entry)": "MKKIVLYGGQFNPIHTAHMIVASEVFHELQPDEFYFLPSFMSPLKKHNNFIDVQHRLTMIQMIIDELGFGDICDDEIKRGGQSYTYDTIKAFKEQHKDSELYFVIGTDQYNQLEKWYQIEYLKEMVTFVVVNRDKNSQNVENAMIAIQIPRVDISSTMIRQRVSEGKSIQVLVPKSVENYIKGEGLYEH", "type": "functional, Staphylococcus aureus subsp. aureus N315"}, "[25]": {"molecular_target": "T5, Probable nicotinate-nucleotide adenylyltransferase", "type": "functional, Staphylococcus aureus subsp. aureus N315", "details": "read-out: IC50_Mean"}, "[26]": {"assay": "glucagon-like peptide-1 release potency in STC-1, concentration-response, half-maximal inhibitory concentration in the STC-1 line (AID 1117345)", "type": "functional, cell-based"}, "[27]": {"assay": "Potency on glucagon-like peptide 1 release, dose-response in NCI-H716 cell line, half maximal inhibitory concentration (AID 1117344)", "type": "functional, cell-based"}}, "note": "Activity calls are given as the source filed them.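 Throughout, for IC50 Mean: confirmatory dose-response retesting of NadD inhibitor hits first found in an ultra-high-throughput screen.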", "data": [{"smiles": "O=Cc1ccc(O)c(O)c1O", "values": [{"measurement": "IC50", "setting": "[1]", "result": "> 10 µM (inactive)"}, {"measurement": "IC50", "setting": "[2]", "result": "> 20 µM (inactive)"}, {"measurement": "IC50", "setting": "[3]", "result": "> 20 µM (inactive)"}, {"measurement": "IC50", "setting": "[4]", "result": "> 10 µM (inactive)"}, {"measurement": "IC50", "setting": "[5]", "result": "> 20 µM (inactive)"}, {"measurement": "IC50", "setting": "[6]", "result": "> 20 µM (inactive)"}, {"measurement": "IC50", "setting": "[7]", "result": "0.141 µM (active)"}]}, {"smiles": "C/N=c1\\scc(C)n1/N=C/c1ccc(O)c(O)c1O", "values": [{"measurement": "EC50", "setting": "[8]", "result": "> 300 µM (inconclusive)"}, {"measurement": "IC50", "setting": "[9]", "result": "> 50 µM (not active)"}, {"measurement": "IC50", "setting": "[10]", "result": "2.72 µM (active)"}, {"measurement": "IC50", "setting": "[11]", "result": "> 50 µM (not active)"}, {"measurement": "IC50", "setting": "[12]", "result": "44 µM (inactive)"}, {"measurement": "IC50", "setting": "Genome polyprotein", "result": "13.9 µM (active)"}, {"measurement": "IC50", "setting": "Albumin", "result": "> 94.1 µM (inactive)"}, {"measurement": "IC50", "setting": "Protein Tat", "result": "49.8 µM (inconclusive)"}, {"measurement": "IC50", "setting": "[13]", "result": "> 100 µM (active)"}, {"measurement": "IC50", "setting": "[14]", "result": "> 96.6 µM (inactive)"}]}, {"smiles": "CC(C)NC(=O)N1[C@H](C#N)[C@H](c2ccc(-c3ccc(F)cc3)cc2)[C@H]1CO", "values": [{"measurement": "AC50", "setting": "[15]", "result": "18.2 µM (active)"}, {"measurement": "AC50", "setting": "[16]", "result": "79.5 µM (active)"}, {"measurement": "AC50", "setting": "[17]", "result": "0.858 µM (active)"}, {"measurement": "AC50", "setting": "[18]", "result": "0.442 µM (active)"}, {"measurement": "AC50", "setting": "[19]", "result": "25.6 µM (active)"}, {"measurement": "AC50", "setting": "[20]", "result": "2.93 µM (active)"}, {"measurement": "AC50", "setting": "[21]", "result": "0.469 µM (active)"}]}, {"smiles": "C[C@@H]1CN([C@H](C)CO)C(=O)c2c(c3ccccc3n2C)-c2ccccc2CO[C@@H]1CN(C)S(=O)(=O)c1ccc([N+](=O)[O-])cc1", "values": [{"measurement": "AC50", "setting": "[22]", "result": "7.62 µM (active)"}]}, {"smiles": "CC(C)(O)c1ccccc1CC[C@@H](SCC1(CC(=O)O)CC1)c1cccc(/C=C/c2ccc3ccc(Cl)cc3n2)c1", "note": "[MONTELUKAST SODIUM]", "values": [{"measurement": "EC50", "setting": "[23]", "result": "1.19 µM (active)"}, {"measurement": "EC50", "setting": "Streptokinase A", "result": "3.41 µM (active)"}, {"measurement": "EC50", "setting": "Streptococcus", "result": "7.96 µM (active)"}, {"measurement": "IC50", "setting": "[24]", "result": "6.18 µM (active)"}, {"measurement": "IC50", "setting": "[25]", "result": "20.6 µM (active)"}, {"measurement": "IC50", "setting": "[26]", "result": "> 40 µM (inactive)"}, {"measurement": "IC50", "setting": "[27]", "result": "20.7 µM (inactive)"}]}]}
